Tests used:
Sprague Dawley rat pups = assay: rodent model of VGB-induced IME (white matter injury and vacuolation); format: in vivo
Experimental: Model of VGB-induced IME. We adhere to the same protocol used by Ovation in recent studies. Sprague Dawley rat pups are treated from postnatal day 4-25 with VBG (50 mg/kg) or vehicle. This is administered by oral gavage to rats starting on PND 4. The single dose of 50 mg/kg was selected on the basis of the previous study in which it produced vacuolar lesions (24, 31). Rats are sacrificed at P25 and perfused with 4% paraformaldehyde. Brains are cryoprotected in sucrose for frozen sectioning.
Treatment groups. We use an n of 15 animals per group. Vehicle only, VGB alone, or VGB and bumetanide. The doses are daily.
Histological and immunocytochemical methods. Using our published protocols for quantification of white matter myelination (29) we perform MBP staining. 16 μm coronal cryostat sections (Leica CM3050 S) were collected on Superfrost Plus slides. […]
Data analysis. Fluorescence images are obtained on a Zeiss Axioscope, using a Spot digital camera and Advanced 4.5 software (Diagnostic Instruments). […] ImageJ software is used to quantitate MBP and O4 immunostaining as a proportion of the white matter capsule area (29). This methodology was validated with ImageJ software quantitation of total area of MBP immunostaining within each 2.4 mm2 field. […]

NKCC1 = biological target: T1, NKCC1 (Rattus norvegicus, UniProt E9PTX9); conditions: bumetanide 0.1 mg/kg, rats, prior work; cited from earlier work
T1 construct: host or cells: rat brain, in vivo (endogenous protein)
T1 sequence (E9PTX9 1-1203): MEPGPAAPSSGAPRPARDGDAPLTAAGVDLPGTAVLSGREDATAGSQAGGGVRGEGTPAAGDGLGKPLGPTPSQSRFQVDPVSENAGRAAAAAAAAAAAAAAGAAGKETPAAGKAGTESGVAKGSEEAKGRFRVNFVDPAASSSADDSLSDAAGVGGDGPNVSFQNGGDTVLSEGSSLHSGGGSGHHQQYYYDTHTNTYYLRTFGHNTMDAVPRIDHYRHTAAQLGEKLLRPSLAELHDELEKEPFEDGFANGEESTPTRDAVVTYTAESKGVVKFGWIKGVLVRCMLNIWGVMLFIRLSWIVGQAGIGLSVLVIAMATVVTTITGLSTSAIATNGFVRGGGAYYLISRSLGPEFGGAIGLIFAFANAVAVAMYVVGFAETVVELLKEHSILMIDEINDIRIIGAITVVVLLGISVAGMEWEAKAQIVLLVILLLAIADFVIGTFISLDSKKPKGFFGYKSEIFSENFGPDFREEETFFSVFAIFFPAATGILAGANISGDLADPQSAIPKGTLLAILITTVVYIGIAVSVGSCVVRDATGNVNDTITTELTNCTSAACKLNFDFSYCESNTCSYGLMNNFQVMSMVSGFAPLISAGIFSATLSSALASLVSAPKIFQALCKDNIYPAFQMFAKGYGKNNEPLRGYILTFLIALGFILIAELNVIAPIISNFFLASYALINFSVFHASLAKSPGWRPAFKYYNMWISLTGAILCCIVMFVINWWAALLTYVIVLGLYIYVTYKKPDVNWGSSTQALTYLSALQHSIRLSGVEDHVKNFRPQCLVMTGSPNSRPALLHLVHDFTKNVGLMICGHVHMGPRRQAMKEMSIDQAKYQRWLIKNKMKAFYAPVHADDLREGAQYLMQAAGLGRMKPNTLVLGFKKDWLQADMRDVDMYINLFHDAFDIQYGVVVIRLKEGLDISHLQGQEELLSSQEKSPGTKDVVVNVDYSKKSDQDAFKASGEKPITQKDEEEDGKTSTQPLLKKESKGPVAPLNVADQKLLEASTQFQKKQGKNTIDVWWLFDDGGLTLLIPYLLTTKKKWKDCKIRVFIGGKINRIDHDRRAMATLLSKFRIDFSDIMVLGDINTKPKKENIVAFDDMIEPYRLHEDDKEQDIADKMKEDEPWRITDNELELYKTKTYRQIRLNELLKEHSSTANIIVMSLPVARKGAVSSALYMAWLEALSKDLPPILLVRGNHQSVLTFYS

Sprague Dawley rats = assay: rat model of vigabatrin (VGB)-induced retinal toxicity, histopathologic analysis of retina; conditions: for VGB-induced retinal toxicity: 30 days
Experimental: We closely follow the methods of Duboc, et al (12) that recommend 30 days of treatment in juvenile rats to induce a lesion.
Model of VGB-induced toxicity. VGB is administered to young adult/juvenile Sprague Dawley rats between 6-7 weeks of age for a period of 30 days. VGB is dissolved in 0.9% NaCl at 100 mg/mL and injected intraperitoneally (i.p.) daily for 30 days at doses of 5 and 3 mg/day as described for treatment of animal epilepsy (26).
Treatment groups. We use of 15 animals per group. […] The doses are daily.
Histopathologic analysis of retina. As per established protocols eye cups are fixed overnight at 4° C. in 4% (wt/vol) paraformaldehyde in phosphate buffered saline PBS) 0.01M, pH 7.4. After cryoprotection in PBS containing successively 10, 20, and 30% sucrose at 4° C., the tissue is embedded in OCT (Labonord, Villeneuve d'Ascq, France). A preliminary analysis of general retinal morphology is performed on vertical sections (8-10 μm thickness) using hematoxylin and eosin. Additional sections are permeabilized for 5 minutes in PBS containing 0.1% Triton X-100 (Sigma, St. Louis, Mo.), rinsed, and incubated in PBS containing 1% bovine serum albumin (Eurobio, Les-Ulis, France), 0.1% Tween 20 (Sigma), and 0.1% sodium azide (Merck, Fontenay-Ss-Bois) for 2 hours at room temperature. The primary antibody is added to the solution and incubated for 2 hours at room temperature. Antibodies were anti-GFAP rabbit polyclonal antibody (1:400; DAKO), and antiactive caspase-3 rabbit polyclonal antibody (1:100; Cell Signaling Technology, Beverly, Mass.). […] Cone photoreceptors are stained with peanut agglutinin lectin coupled to Texas Red (PNA, 1:40; Sigma). […] The dye, diamidiphenyl-indole (DAPI), is added to any incubation solution. Sections are mounted with Fluorsave reagent (Calbiochem, San Diego, Calif.). PNA-stained cone inner/outer segments are counted on retinal sections in eight consecutive 300 μm-wide optical windows on each side of the optic nerve under the 40× objective. Areas with a disorganized outer nuclear layer are specifically excluded from this count. Vertical sections are stained with hematoxylin and eosin.
Tissue Preparation for Electron Microscopy. […] The tissue is rinsed in cacodylate 0.15M and postfixed in 1% osmium tetroxide (Electron MicroscopySciences) for 1 hour. After dehydration in ethanol, and propylene oxide, the tissue is embedded in epon. Semithin sections are stained with methylene blue and ultrathin sections (80 nm) contrasted with lead citrate and uranyl acetate.
Data analysis. For quantification we use the same outcome measures of retinal injury as Duboc et al and Jammoul et al (12, 25). Vertical sections along the dorsoventral axis are selected at the optic nerve. After DAPI nuclear staining, the lengths of disorganized retinal areas are measured; GFAP immunostaining is used for detection and quantification of retinal areas with reactive gliosis. The cone photoreceptor density is calculated after cone arrestin immunostaining to visualize the inner/outer segments of cone photoreceptors; areas with disorganized retinal layering were excluded.

[1] = FDA not approvable action 1998; cited from earlier work
[2] = bumetanide higher dose (0.2 mg/kg)

| SMILES | protection against VGB-induced white matter injury / IME (Sprague Dawley rat pups; higher dose of bumetanide (0.2 mg/kg) with VGB 50 mg/kg/day) | protection against VGB-induced white matter injury / IME (Sprague Dawley rat pups; lower dose of bumetanide (0.1 mg/kg/day i.p.) with VGB 50 mg/kg/day, PND 4-25) | suppression of NKCC1 in brain (NKCC1) | VGB-induced retinal toxicity (Sprague Dawley rats; bumetanide 0.2 mg/kg dose with VGB) | adverse effects of diuresis (Sprague Dawley rats; [2]) | effects on body weight or skin turgor (Sprague Dawley rats; [2]) | VGB-induced retinal toxicity (Sprague Dawley rats; lower dose of bumetanide 0.1 mg/kg i.p. daily with VGB 5 mg/day) | incidence of permanent vision loss [1] [%] | vigabatrin toxicity in retina (histopathology) (Sprague Dawley rats; VGB i.p. daily for 30 days, juvenile rats) |
| --- | --- | --- | --- | --- | --- | --- | --- | --- | --- |
| CCCCNc1cc(C(=O)O)cc(S(N)(=O)=O)c1Oc1ccccc1 [bumetanide, Bumetanide] | additional efficacy | shows protective efficacy | effectively suppresses NKCC1 in brain | additional efficacy | no adverse effects of any modest diuresis | nor any significant effects on body weight or skin turgor | significant decrease in toxicity |  |  |
| C=CC(N)CCC(=O)O (stereo not drawn) [vigabatrin, gamma-vinyl-GABA] |  |  |  |  |  |  |  | 30 | photoreceptor injury/loss and vacuolization |

— patent publication US8822539B2, “Combination therapies: inhibitors of GABA transaminase and NKCC1” (Children's Medical Center Corporation, priority 2010, dated 2014)
